# How the values were obtained:
# HepG2 = experiment: Inhibitory concentration against cholesterol biosynthesis in HepG2 cells.; conditions: Homo sapiens
# Lanosterol synthase = biological target: T1, Lanosterol synthase (Rattus norvegicus, UniProt P48450); experiment: Inhibitory concentration against purified rat liver Oxidosqualene cyclase (OSC); NI means no inhibition
# T1 sequence (P48450 whole entry): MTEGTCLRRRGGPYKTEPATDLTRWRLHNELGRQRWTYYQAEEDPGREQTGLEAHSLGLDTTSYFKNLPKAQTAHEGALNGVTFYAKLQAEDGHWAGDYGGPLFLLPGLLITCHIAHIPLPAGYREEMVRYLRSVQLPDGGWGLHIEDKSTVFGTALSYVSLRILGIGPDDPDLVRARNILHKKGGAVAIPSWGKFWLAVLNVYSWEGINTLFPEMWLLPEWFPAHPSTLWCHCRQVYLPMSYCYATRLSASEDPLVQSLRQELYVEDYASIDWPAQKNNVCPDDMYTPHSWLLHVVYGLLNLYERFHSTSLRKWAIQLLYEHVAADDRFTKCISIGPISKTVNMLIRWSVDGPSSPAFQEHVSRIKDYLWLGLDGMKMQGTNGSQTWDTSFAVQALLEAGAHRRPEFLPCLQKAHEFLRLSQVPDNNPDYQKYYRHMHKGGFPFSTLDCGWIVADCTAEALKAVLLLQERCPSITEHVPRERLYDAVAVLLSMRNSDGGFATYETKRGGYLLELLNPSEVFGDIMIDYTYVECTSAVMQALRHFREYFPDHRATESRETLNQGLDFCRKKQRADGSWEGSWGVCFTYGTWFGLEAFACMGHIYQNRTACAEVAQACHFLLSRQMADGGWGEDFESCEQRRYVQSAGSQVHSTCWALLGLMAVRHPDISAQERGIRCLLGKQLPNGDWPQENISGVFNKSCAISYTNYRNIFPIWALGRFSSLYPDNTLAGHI
Compound,IC50 (HepG2),IC50 (Lanosterol synthase)
CC(C)CCCC(C)CCCC(C)N1CCCCC1 (stereo not given),30000 nM,–
CCCCCCCCCCCCN1CCC(C(C)CO)CC1 (stereo not given),40 nM,–
CCCCCCCCCCCC(=O)N1CC[C@H]2[C@H](C)[C@@H](O)CC[C@]2(C)C1,0.7 nM,–
C[C@@H]1[C@@H](O)CC[C@]2(C)CN(Cc3ccccc3)CC[C@@H]12,–,Not Active
CCCCCCCCCCCCC(=O)N1CCC(C(C)CO)CC1 (stereo not given),12 nM,–
